These results are taken from patent US20250341522A1, “Treatment Strategies for Pancreatic Cancer Using Recombinant Acid Sphingomyelinase” (University of Cincinnati, priority 2024, published 2025).

The target in one experiment is T1, SLC66A1 (Mus musculus, UniProt Q8C4N4).
T1 construct: SLC66A1 was immunoprecipitated from 40×10^6 splenocytes, after lysis in RIPA-buffer+aprotinin/leupeptin; endogenous in cells; host or cells: splenocytes (immunoprecipitate on protein A/G agarose)
T1 sequence (Q8C4N4 1-293): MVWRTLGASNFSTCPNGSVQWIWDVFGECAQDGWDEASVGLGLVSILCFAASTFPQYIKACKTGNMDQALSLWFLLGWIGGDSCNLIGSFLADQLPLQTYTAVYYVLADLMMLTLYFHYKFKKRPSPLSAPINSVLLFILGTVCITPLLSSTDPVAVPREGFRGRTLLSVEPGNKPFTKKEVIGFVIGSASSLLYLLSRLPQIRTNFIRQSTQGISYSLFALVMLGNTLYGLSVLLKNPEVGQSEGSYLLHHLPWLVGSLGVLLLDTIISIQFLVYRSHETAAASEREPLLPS
Kind of experiment: Binding of [14C]sphingomyelin to immunoprecipitated SLC66A1. On the procedure: FIG. 7A is a graph showing the binding of [^14C]sphingomyelin (SM), [^14C]ceramide (Cer), and [^14C]sphingosine (SPH) in the absence or presence of the VMLTLYFYY peptide.
(§1) The lysosomal arginine transporter SLC66A1 contains a VMLTLYFYY motif. A study was conducted to investigate whether SLC66A binds to sphingomyelin. […] Additionally, efflux of arginine was markedly higher in lysosomes of splenic myeloid cells isolated from wt tumors than in cells from control mice and absent in ASM-tr cells (FIG. 7B).
FIG. 7A is a graph showing SLC66A1 was immunoprecipitated from 40×10^6 splenocytes, after lysis in RIPA-buffer+aprotinin/leupeptin. Immunocomplexes were immobilized on protein A/G agarose, washed 3-times in RIPA buffer and twice in PBS+0.1% Triton X100, resuspended in the same buffer and binding of [^14C]sphingomyelin (SM), [^14C]ceramide (Cer), or [^14C]sphingosine (SPH) was measured in the absence or presence of the VMLTLYFYY peptide.

For experiment [1], the system named is Pan02 pancreas cancer cells. Kind of experiment: Orthotopic pancreatic cancer murine model (Pan02), tumor size 15 days after injection. It is filed as in vivo. To be noted: wildtype mice, amitriptyline 10 mg/kg i.p. every other day, 15 days after tumor initiation, vs vehicle. The protocol: The wildtype mice were randomly divided into 2 groups treated with antidepressant (amitriptyline 10 mg/kg, i.p. injected every 2nd day) or vehicle, i.e. 0.9% NaCl. The size of the pancreas cancer was determined 15 days after tumor initiation.
FIG. 4 is a graph showing a growth of PDAC in murine models of orthotopic pancreatic ductal adenocarcinoma. Wildtype mice were injected orthotopically into the pancreas with […] Pan02 pancreas cancer cells and either left untreated or treated with amitriptyline at 10 mg/kg every other day via IP injection starting at day 4 after tumor injection. In addition, we injected acid sphingomyelinase-deficient littermates with Pan02 pancreas cancer cells orthotopically into the pancreas. Tumor size was determined 15 days after injection. Shown are the mean±SD of the tumor size from each n=4-5 mice per group; *p<0.05, ANOVA with Tukey post hoc test.
All animal experiments were approved by the University of Cincinnati Ethic Committee and the Institutional Animal Care and Use Committee. Eight-week-old, wild type male, C57BL/6J mice were purchased from Jackson Labs (000664, Jackson Labs, USA). Acid sphingomyelinase-deficient mice (Smpd1−/−) were bred and genotyped at the animal facility of the University of Cincinnati. […] The size of the pancreas cancer was determined in all groups 15 days after tumor initiation.

The target in a further experiment is T2, ASM (Mus musculus, UniProt Q04519).
T2 construct: endogenous in cells; host or cells: ex vivo mouse splenocytes, Ly6G-sorted myeloid cells, J774 macrophages
T2 sequence (Q04519 45-627): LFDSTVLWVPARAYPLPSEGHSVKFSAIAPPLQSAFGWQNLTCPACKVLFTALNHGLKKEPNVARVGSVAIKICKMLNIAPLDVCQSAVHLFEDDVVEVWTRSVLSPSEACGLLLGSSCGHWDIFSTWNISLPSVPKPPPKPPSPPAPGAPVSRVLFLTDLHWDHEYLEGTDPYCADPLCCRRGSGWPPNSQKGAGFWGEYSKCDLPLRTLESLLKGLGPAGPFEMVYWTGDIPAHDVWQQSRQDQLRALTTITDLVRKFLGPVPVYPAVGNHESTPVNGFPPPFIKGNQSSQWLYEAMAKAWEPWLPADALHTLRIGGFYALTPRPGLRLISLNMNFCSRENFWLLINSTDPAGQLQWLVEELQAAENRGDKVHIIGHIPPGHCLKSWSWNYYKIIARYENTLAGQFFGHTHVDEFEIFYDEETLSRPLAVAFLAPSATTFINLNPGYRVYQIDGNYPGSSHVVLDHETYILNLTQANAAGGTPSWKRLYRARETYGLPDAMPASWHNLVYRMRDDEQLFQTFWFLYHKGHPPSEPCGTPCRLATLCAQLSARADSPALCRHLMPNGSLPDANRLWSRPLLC
Kind of experiment: Incubation of ex vivo splenocytes, Ly6G-sorted myeloid cells or J774 macrophages with polyamines: ASM activity and sphingomyelin. It counts as cell-based, mice. To be noted: agmatine 5 μM, 8 hr. The protocol:
FIG. 9A is a graph showing the concentration of polyamines in the blood plasma of wt or ASM-tr mice determined by ELISA. FIG. 9B is a graph showing the activity of ASM for splenocytes that were isolated from wt or ASM-tr mice and stimulated for 8 hr with 5 μM agmatine (Agm), 100 μM spermine (Sp), or 100 μM spermidine (Spd). FIG. 9C is a graph showing the concentrations of sphingomyelin for splenocytes that were isolated from wt or ASM-tr mice and stimulated for 8 hr with 5 μM agmatine (Agm), 100 μM spermine (Sp), or 100 μM spermidine (Spd). The activity of ASM and the concentrations of sphingomyelin were determined by an enzyme assay or ELISA. Mean±SD; n=6-8; **p<0.01, ***p<0.001 ANOVA.
An increase of Arg-1 and ADC expression may also increase polyamine concentrations. […]
FIG. 10 is a graph showing ASM activity (A) and levels of sphingomyelin (B), Arg-1 (C), and ADC (D) were determined in macrophages (J774 cell line) or in stable ASM-transfected J774 (with an approximately 3-fold overexpression of ASM) at baseline, after treatment with agmatine (Agm, 5 μM), spermine (Sp, 100 μM), or spermidine (Spd, 100 μM), supernatant (Sup) from KPC cells, and supernatant immunodepleted (id) of polyamines. ASM activity was measured by determining the consumption of [^14C]sphingomyelin, Sphingomyelin-, Arginase-1- and ADC-levels were quantified by ELISA. […]

The subject of another experiment is KPC-PDAC cells. Kind of experiment: Tumor development and survival of wildtype and ASM-transgenic mice after i.p. injection of KPC-PDAC cells, gemcitabine treatment (Example 4, FIG. 5). It is filed as in vivo. Conditions: for response of tumors to treatment: i.p. KPC-PDAC cells. The protocol: FIG. 5 is a graph showing the survival of wildtype and ASM-transgenic mice after i.p. injection of 25,000 KPC cells. Treatment of ASM-transgenic (tr) mice with gemcitabine rescued 100% of the mice from tumor growth. n=12 each group.
An experiment was conducted to determine if acid sphingomyelinase overexpression prevents tumor growth. Based on the clinical data, the effects of ASM overexpression and tumor growth were evaluated.

In experiment [2] the test system is lysosomal arginine transport. Kind of experiment: Efflux of arginine from isolated lysosomes of Ly6G-sorted splenocytes. It counts as biochemical, mice. To be noted: lysosomes of wt cells treated with sphingomyelin. On the procedure: FIG. 7B is a graph showing the results of isolated lysosomes from Ly6G-sorted splenocytes obtained from mice with or without PDAC being loaded with [^14C]arginine and the efflux of [3H]arginine being determined. Aliquots of the lysosomes were treated with sphingomyelin.
as §1
FIG. 7B is a graph showing isolated lysosomes from Ly6G-sorted splenocytes obtained from mice with or without PDAC were loaded with [^14C]arginine and the efflux of [3H]arginine was determined. Aliquots of the lysosomes were treated with sphingomyelin. Mean±SD; n=6-8; ***p<0.001 ANOVA.

The subject of experiment [3] is isolated immune cells from tumors in wt mice. The experiment in a line: Anti-CD3-mediated IL-2 and INFγ formation in isolated immune cells from tumor wt mice. It is filed as cell-based. To be noted: arginine added to isolated immune cells from tumors in wt mice. The source says:
Further, it was confirmed that sphingomyelin caused upregulation of Arg-1 and ADC and the concomitant reduction of arginine concentrations results in immune inhibition. Confirmation was accomplished by the finding that anti-CD3-mediated IL-2 and INFγ-formation, as well as cytotoxicity toward KPC cells, is lower in splenocytes isolated from wt mice injected with PDAC than in splenocytes from ASM-tr mice (FIG. 8E).

As for VMLTLYFYY [VMLTLYFYY peptide], in the experiment with SLC66A1 (excess synthetic peptide), the “binding of sphingomyelin to SLC66A1 in the presence of peptide” value is “almost abrogated”.

For `CN(C)CCC=C1c2ccccc2CCc2ccccc21` [amitriptyline], the “tumor growth (tumor size)” value in experiment [1] is listed as “increased tumor growth”.

For `N=C(N)NCCCCN` [agmatine], on ASM, the ASM activity result is recorded as “inhibited ASM activity” and the cellular sphingomyelin concentrations result was “increased cellular sphingomyelin concentrations”.

`Nc1ccn([C@@H]2O[C@H](CO)[C@@H](O)C2(F)F)c(=O)n1` [gemcitabine]: the “response of tumors to treatment” value in the experiment with KPC-PDAC cells (ASM-tr mice, low dose of gemcitabine) is given as “completely eradicate the tumors”; with KPC-PDAC cells (wt mice), “resistant”. The “mice rescued from tumor growth” value with KPC-PDAC cells (ASM-transgenic mice, 25,000 KPC cells i.p., n=12) was determined as 100%.

In the case of sphingomyelin, the “binding to SLC66A1” value on SLC66A1 (immunoprecipitation from splenocytes, [14C]sphingomyelin) was “direct and specific binding”. Moreover, in experiment [2], the “efflux of arginine from lysosomes” value is on record as “strongly activated”.

As to `N=C(N)NCCC[C@H](N)C(=O)O` [arginine], the “CD3-mediated formation of IL-2 and INFγ” value in experiment [3] is on record as “restored”.
